ChEMBL document CHEMBL3046298, “Synthesis and metal ion binding activity of methyl 12-amino-13-nitro-7-oxo dehydrodeisopropylabietate derivatives” (Med Chem Res, 2012)

Legend:
[1] = Metal chelating activity of the compound assessed as formation of copper complex by fluorescence quenching assay; assay type: physicochemical
[2] = Metal chelating activity of the compound assessed as formation of iron complex by fluorescence quenching assay; assay type: physicochemical

Row | Compound | Ka [1] | Ka [2]
1 | COC(=O)[C@]1(C)CCC[C@]2(C)c3cc(NC(C)C)c([N+](=O)[O-])cc3C(=O)C[C@@H]12 | 102.9 L/mol | 168.3 L/mol
2 | COC(=O)[C@]1(C)CCC[C@]2(C)c3cc(Nc4ccc(OC)cc4)c([N+](=O)[O-])cc3C(=O)C[C@@H]12 | 89.2 L/mol | 165 L/mol
3 | COC(=O)[C@]1(C)CCC[C@]2(C)c3cc(NC(C)(C)C)c([N+](=O)[O-])cc3C(=O)C[C@@H]12 | 175.6 L/mol | 103.6 L/mol
4 | COC(=O)[C@]1(C)CCC[C@]2(C)c3cc(NCCO)c([N+](=O)[O-])cc3C(=O)C[C@@H]12 | 70.3 L/mol | 108 L/mol
5 | COC(=O)[C@]1(C)CCC[C@]2(C)c3cc(Nc4ccccc4)c([N+](=O)[O-])cc3C(=O)C[C@@H]12 | 60.7 L/mol | 106.9 L/mol
6 | COC(=O)[C@]1(C)CCC[C@]2(C)c3cc(NCCN)c([N+](=O)[O-])cc3C(=O)C[C@@H]12 | 97.6 L/mol | 305.9 L/mol
7 | COC(=O)[C@]1(C)CCC[C@]2(C)c3cc(Nc4ccc(C)cc4)c([N+](=O)[O-])cc3C(=O)C[C@@H]12 | 60.7 L/mol | 122.7 L/mol
8 | CCCNc1cc2c(cc1[N+](=O)[O-])C(=O)C[C@H]1[C@](C)(C(=O)OC)CCC[C@]21C | 61.7 L/mol | 135.7 L/mol
9 | CNc1cc2c(cc1[N+](=O)[O-])C(=O)C[C@H]1[C@](C)(C(=O)OC)CCC[C@]21C | 107 L/mol | 186 L/mol
10 | CCCCNc1cc2c(cc1[N+](=O)[O-])C(=O)C[C@H]1[C@](C)(C(=O)OC)CCC[C@]21C | 137.2 L/mol | 181.7 L/mol
11 | CCNc1cc2c(cc1[N+](=O)[O-])C(=O)C[C@H]1[C@](C)(C(=O)OC)CCC[C@]21C | 81.3 L/mol | 138.3 L/mol
